US20210221794A1, “ISATIN DERIVATIVES” (KING SAUD UNIVERSITY, priority 2020, published 2021)

How the values were obtained:
Format in all cases: cell-based, Human
Conditions in all cases: concentration 10-M [sic], 2 days after addition
[1] = test system: Renal Cancer cells (CAKI-1); assay: NCI-60 one-dose screen, Renal Cancer cells (CAKI-1)
Experimental: (§1) Anticancer activities of the exemplary isatin derivatives were tested by the NIH National Cancer Institutes (NCI), with results summarized in FIGS. 2A-2B. The anticancer activity was tested by NCI, division of cancer treatment and diagnosis, according to the NCI-60 Human Tumor Cell Lines Screen, one-dose screen (https://dtp.cancer.gov/discovery_development/nci-60/methodology.htm). This screening allows for qualified synthesized chemicals to be subjected to an anticancer test against 60 different cancer cell lines. Briefly, exemplary T1 or T2 was dissolved in DMSO:Glycerol, 9:1, at 4 mmol and kept frozen prior to use. For inoculation, a 96 well microtiter was used for the study of different cell lines. Based on the doubling time for each cell line, the well density varied. The plates were incubated at 37° C., 5% CO2, 95% air and 100% relative humidity for 1 day. The exemplary T1 or T2 or a control were added to the plates at a concentration of 10-M. After 2 more days, the plates were fixed and stained to identify growth inhibition relative to cells without drug treatment. Anti-proliferative activity was determined based on careful analysis of historical DTP screening data. Cell death and net growth inhibition were determined based on a time zero control. A value of 100 indicates no growth inhibition. A value of 40 indicates 60% growth inhibition. […]

[2] = test system: Renal Cancer cells (UO-31); assay: NCI-60 one-dose screen, Renal Cancer cells (UO-31)
Experimental: as §1

[3] = test system: Breast Cancer cells (HS 578T); assay: NCI-60 one-dose screen, Breast Cancer cells (HS 578T)
Experimental: as §1

[4] = test system: Non-Small Cell Lung Cancer cells (EKVX); assay: NCI-60 one-dose screen, Non-Small Cell Lung Cancer cells (EKVX)
Experimental: as §1

[5] = test system: Colon Cancer cells (KM12); assay: NCI-60 one-dose screen, Colon Cancer cells (KM12)
Experimental: as §1

[6] = test system: Ovarian Cancer cells (IGROV1); assay: NCI-60 one-dose screen, Ovarian Cancer cells (IGROV1)
Experimental: as §1

SMILES | reduction compared to control (anticancer activity) [1] | reduction compared to control (anticancer activity) [2] | reduction compared to control (anticancer activity) [3] | reduction compared to control (anticancer activity) [4] | reduction compared to control (anticancer activity) [5] | reduction compared to control (anticancer activity) [6]
O=C1Nc2ccc(Cl)cc2C1=NN=Cc1c[nH]c2ccccc12 [T2] | ~71% | ~59% | ~78% | ~77% |  | 
O=C1Nc2ccccc2C1=NN=Cc1c[nH]c2ccccc12 [T1] | ~83% | ~74% | ~85% | ~79% | ~72% | ~65%
